Data on 19 compounds can be found in PubChem BioAssay (NCI).

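Compound exposure: 48 hours, 5 concentrations, 96-well plates. TGI: concentration producing complete growth inhibition.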

Common to all, as to experiment: NCI-60 cell line screen, 48 h
The test system of assay [1] is A498 renal.
The subject of assay [2] is A549 NSCLC.
Assay [3] concerns HL-60(TB) leukemia.
For assay [4], the system named is IGROV1 ovarian.
The test system of assay [5] is LOX IMVI melanoma.
Assay [6] has as its system MALME-3M melanoma.
Assay [7] has as its system MOLT-4 leukemia.
Assay [8] concerns NCI-H460 lung.
Assay [9] deals with OVCAR-4 ovarian.
Assay [10] concerns RPMI-8226 leukemia.
Assay [11] has as its system SF-539 CNS.
Assay [12] deals with SK-MEL-5 melanoma.
Assay [13] has as its system SNB-19 CNS.
In assay [14] the test system is TK-10 renal.
The test system of assay [15] is U251 CNS.
Assay [16] has as its system UACC-257 melanoma.

Consider `O=C(CC(=O)c1ccccc1)C(=O)Nc1ccc(Cl)cc1`, for which the TGI in assay [1] was over 100 µM; in [2], over 100 µM; in assay [3], over 100 µM; in [4], over 100 µM; in assay [5] it was over 56.7 µM; in assay [6], over 100 µM. For the same compound, the TGI in assay [7] was over 100 µM; in [8] it was over 55.1 µM; in [9] it was over 100 µM; in assay [10] it was over 100 µM; in assay [11] it was over 100 µM; in assay [12] it was over 100 µM. For the same compound, the TGI in assay [13], in assay [14], in assay [15] and in assay [16] was over 100 µM throughout.
Turning to `Cc1ccc(NC(=O)/C(C#N)=C/c2ccccc2)c(C)c1`, the TGI in [1], in [2], in assay [3], in assay [4], in [6] and in assay [7] was over 100 µM throughout. In addition, the TGI in [8], in [9], in assay [10], in assay [11], in assay [12] and in assay [13] was over 100 µM each time. The TGI in assay [14], in [15] and in assay [16] was over 100 µM throughout.
`NC(CCCCNCc1ccccc1O)C(=O)O` (stereo not drawn): the TGI in [1], in assay [2], in assay [3], in [4], in [5] and in assay [6] was over 100 µM in each case. The TGI in assay [7], in [8], in [9], in assay [10], in assay [11] and in assay [12] was over 100 µM throughout. Also, the TGI in [13], in assay [14], in assay [15] and in assay [16] was over 100 µM each time.
Take `N#CNC1=NC(N)C(c2nc3ccccc3[nH]2)=C(CCCC(=O)Nc2cccc([N+](=O)[O-])c2)N1` (stereo not drawn): the TGI in [2], in [3], in assay [4], in [5], in assay [6] and in [7] was over 100 µM in each case. In addition, the TGI in [8], in assay [9], in assay [10], in assay [11], in assay [12] and in assay [13] was over 100 µM in each case. Also, the TGI in assay [14] and in assay [16] was over 100 µM in each case.
`COc1cc(-c2cc(=O)c3ccccc3[nH]2)cc(OC)c1OC`: the TGI was over 75 µM in assay [2]; over 7.5 µM in assay [3]; over 75 µM in assay [5]; over 75 µM in assay [6]; over 75 µM in assay [7]; over 75 µM in [8]. The TGI in [10], in assay [11], in assay [13], in assay [14], in assay [15] and in assay [16] was over 75 µM in each case.
With `CSC(=N)N1N=C2/C(=C/c3ccccc3)CCC[C@H]2[C@H]1c1ccccc1`, the TGI in [1] was 18.4 µM; in assay [2], 16.3 µM; in assay [3], 4.29 µM; in [4], 9.18 µM; in [5], 16.2 µM; in assay [6], 3.94 µM. The TGI in [7] was found to be 12.6 µM; in assay [8] it was 20.1 µM; in [9], 11.8 µM; in [10], 7.12 µM; in assay [11] it was 19.5 µM; in assay [13], 19.3 µM. The TGI stood at 25.8 µM in assay [14], 25.9 µM in assay [15] and 6.92 µM in assay [16].
On to `CC(=O)Nc1ccc(S(=O)(=O)NN(C)S(=O)(=O)c2ccc(C)cc2)cc1`, for which the TGI in assay [1], in assay [2], in assay [3], in assay [4], in assay [6] and in assay [7] was over 100 µM in each case. In addition, the TGI in [8], in [9], in assay [10], in assay [11], in [12] and in assay [13] was over 100 µM in each case. The TGI in [14] and in [16] was over 100 µM in each case.
In the case of `Cc1nnc(N/N=C(/C(=O)C(C#N)c2ccc(Cl)cc2)C(C#N)c2ccc(Cl)cc2)n1N` (stereo not drawn), the TGI in assay [2] was 43.9 µM; in assay [3] it was 55.4 µM; in [5] it was 35.4 µM; in assay [6], 33.6 µM; in [7], over 100 µM; in assay [8] it was 39.3 µM. The TGI in assay [9] is 32.9 µM; in [10], 45.6 µM; in assay [12], 30.9 µM; in assay [13] it was 27.9 µM; in assay [14] it was 34.7 µM; in assay [16] it was 33.1 µM.
On to `C/C(N=NS(=O)(=O)c1ccc(C)cc1)=C1\C=CC=CN1O`, for which the TGI in [1], in assay [2], in [3], in assay [4], in [7] and in [8] was over 100 µM throughout. Also, the TGI in assay [9], in assay [10], in assay [11], in assay [12], in assay [13] and in assay [14] was over 100 µM each time. The TGI in assay [15] and in [16] was over 100 µM each time.
With `Nc1nc2c(ncn2CCCC(c2ccccc2)P(=O)(O)O)c(=O)[nH]1` (stereo not drawn), the TGI in assay [2], in assay [3], in assay [4], in assay [5], in assay [6] and in [7] was over 100 µM throughout. The TGI in assay [8], in assay [10], in assay [11], in assay [12], in assay [13] and in assay [14] was over 100 µM throughout. Besides, the TGI in assay [15] and in assay [16] was over 100 µM each time.
With `Cn1nc(-c2ccccc2)c(C(=O)/C=C/c2ccc(Cl)cc2)c(N2CCOCC2)c1=O`, the TGI in assay [1] came to 15.8 µM; in assay [2], 23.1 µM; in assay [3], 4.38 µM; in assay [4], 16.1 µM; in assay [5], 61.7 µM; in [7], 4.63 µM. In addition, the TGI in assay [8] is 12.2 µM; in assay [10], 6.74 µM; in assay [11], 7.67 µM; in assay [12], 17.2 µM; in assay [13], 29.3 µM; in assay [14], 25.8 µM. The same compound registered a TGI in assay [15] of 12.8 µM.
`O=C(O)C12CC3CC(CC(F)(C3)C1)C2`: the TGI in assay [1], in assay [2], in assay [3], in [4], in assay [5] and in [6] was over 100 µM each time. Besides, the TGI in assay [7], in [8], in assay [10], in assay [11], in [12] and in [14] was over 100 µM each time. For the same compound, the TGI in assay [15] and in assay [16] was over 100 µM throughout.
Regarding `Nc1nc2ncn(CC(O)CO)c2c(=O)[nH]1` (stereo not drawn), the TGI in assay [1], in assay [2], in assay [3], in assay [4], in assay [5] and in [6] was over 100 µM throughout. Besides, the TGI in assay [8], in [9], in assay [10], in [11], in assay [12] and in [13] was over 100 µM each time. For the same compound, the TGI in assay [14], in assay [15] and in assay [16] was over 100 µM each time.
Take `O=C(Nc1nc2ncn(CCO)c2c(=O)[nH]1)c1ccccc1`: the TGI in assay [1], in [2], in assay [3], in assay [4], in assay [5] and in assay [6] was over 100 µM in each case. Moreover, the TGI in assay [8], in assay [9], in assay [10], in [11], in assay [12] and in assay [13] was over 100 µM each time. For the same compound, the TGI in assay [14], in assay [15] and in assay [16] was over 100 µM each time.
For the compound `Oc1cccnc1/C=N/OCc1ccccc1`, the TGI in assay [1], in [2], in assay [3], in assay [4], in assay [5] and in assay [6] was over 100 µM throughout. Also, the TGI in assay [7], in [8], in assay [10], in assay [11], in assay [12] and in [13] was over 100 µM in each case. Further, the TGI in [14], in assay [15] and in [16] was over 100 µM throughout.
In the case of `O=c1ccn(/C=C/C(O)C(O)CO)c(=O)[nH]1` (stereo not drawn), the TGI in assay [1], in assay [2], in assay [3], in assay [4], in assay [5] and in assay [6] was over 100 µM each time. Also, the TGI in assay [7], in assay [9], in [10], in assay [11], in assay [12] and in assay [13] was over 100 µM throughout. In addition, the TGI in assay [14], in [15] and in assay [16] was over 100 µM each time.
As to `COc1ccc(/C=C/c2cc(OC)c(OCc3ccccc3)c(OC)c2)cc1`, the TGI in assay [1], in assay [2], in [4], in assay [6], in assay [7] and in assay [8] was over 100 µM throughout. The TGI in assay [9], in assay [10], in assay [11], in assay [13], in [15] and in [16] was over 100 µM each time.
Regarding `CN(C)CC(/C(Cc1ccccc1)=N\NC(=S)NN)c1ccccc1` (stereo not drawn), the TGI in assay [2], in [3], in assay [4], in assay [5], in assay [6] and in assay [7] was over 100 µM each time. For the same compound, the TGI in assay [8], in [9], in assay [10], in [11], in assay [13] and in assay [14] was over 100 µM in each case. Also, the TGI in assay [15] and in assay [16] was over 100 µM each time.
Take `CSc1ccc2c(cc1=O)C(NC(=O)c1ccc(C#N)cc1)CCc1cc(O)c(O)c(O)c1-2` (stereo not drawn): the TGI in assay [1] was over 100 µM; in assay [2] it was over 100 µM; in [3] it was 51.9 µM; in assay [6] it was over 100 µM; in assay [7], 59 µM; in [8] it was 73.3 µM. In addition, the TGI was 27.2 µM in assay [9]; 36.1 µM in assay [11]; 71.5 µM in assay [12]; over 100 µM in [13]; over 100 µM in assay [14]; 45.3 µM in assay [15]. The compound also returned a TGI in [16] of 37 µM.
